Some test systems named below: COLO 205; SK-OV-3; A498; K562; RXF 393; OVCAR-8; HT-29; TK-10; SW-620; U-251; SF-268; UACC-62; LOX IMVI; HCT-116; NCI-H460; MOLT-4; SK-MEL-2.
Holding throughout (experiment): NCI-60 cell line screen, 48 h

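Five concentrations, 48 hours, 96-well plates. GI50 marks 50% less growth.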 Calls of active or inactive are those of the source. Cut-off read from the data, not from the text of the source: active = GI50 up to about 1.1 µM and inactive = higher. Where only a bound is given, the exact number is not on record here.

With `C=CCO[C@H]1CC[C@@]2(C)C(CC[C@]3(C)C2CC=C2[C@@H]4[C@@H](C)C(C)CC[C@]4(C(=O)O)CCC23C)C1(C)C` (some centres undefined), the GI50 in the assay with COLO 205 is 16 µM (inactive); with SK-OV-3 it was 16.9 µM (inactive); with A498, 17.3 µM (inactive); in the assay with K562, 14.3 µM (inactive); with RXF 393 it was 6.05 µM (inactive); with OVCAR-8, 18.4 µM (inactive). Further, the GI50 in the assay with HT-29 was 16.3 µM (inactive); in the assay on TK-10, 18.2 µM (inactive); with SW-620, 18.5 µM (inactive); in the assay with U-251, 16.1 µM (inactive); in the assay with SF-268, 19.2 µM (inactive); in the assay with UACC-62 it was 14.4 µM (inactive). For the same compound, the figures for the GI50 in the assay with LOX IMVI, in the assay on HCT-116 and in the assay on NCI-H460 were 13.5 µM (inactive), 12.7 µM (inactive) and 17.5 µM (inactive), respectively.
Regarding `CN(C)CCONC(=O)C12CC3CC(CC(C3)C1)C2`, the GI50 in the assay on COLO 205, in the assay on MOLT-4, with SK-OV-3, with A498, in the assay on K562 and in the assay with RXF 393 was > 100 µM (inactive) in each case. In addition, the GI50 in the assay with SK-MEL-2, in the assay with OVCAR-8, with HT-29, in the assay on TK-10, with U-251 and with SF-268 was > 100 µM (inactive) in each case. Also, the GI50 in the assay on UACC-62, in the assay with LOX IMVI, in the assay on HCT-116 and in the assay on NCI-H460 was > 100 µM (inactive) each time.
As to `CCc1cccc(C(C)CC)c1/N=C(/NC(=O)c1ccccc1C(=O)N/C(=N/c1c(CC)cccc1C(C)CC)SC)SC` (centres undefined), the GI50 in the assay with COLO 205 is 40.6 µM (inactive); in the assay with MOLT-4 it was 29.2 µM (inactive); in the assay with SK-OV-3, 28.6 µM (inactive); in the assay on K562 it was 27.7 µM (inactive); in the assay with RXF 393, 35.5 µM (inactive); with SK-MEL-2 it was 40.9 µM (inactive). In addition, the GI50 in the assay on OVCAR-8 was 59.2 µM (inactive); in the assay with HT-29, 40.4 µM (inactive); in the assay with TK-10 it was 30.8 µM (inactive); in the assay on SW-620, 31.9 µM (inactive); in the assay on U-251, 26.2 µM (inactive); in the assay with SF-268, 72.3 µM (inactive). In addition, the GI50 is 20.9 µM (inactive) in the assay on UACC-62, 31.3 µM (inactive) in the assay on LOX IMVI, 34.4 µM (inactive) in the assay on HCT-116 and 50.4 µM (inactive) in the assay on NCI-H460.
Regarding `CN(C)/N=C(/c1nc2ccc([N+](=O)[O-])cc2nc1O)C(O)c1ccco1` (centres undefined), the GI50 in the assay on COLO 205, in the assay on MOLT-4, in the assay with SK-OV-3, in the assay on K562, in the assay on RXF 393 and in the assay with OVCAR-8 was > 100 µM (inactive) in each case. For the same compound, the GI50 in the assay with HT-29 is > 100 µM (inactive); with SW-620, 92.3 µM (inactive); in the assay with U-251, > 100 µM (inactive); in the assay on SF-268 it was 84.9 µM (inactive); in the assay with UACC-62, 22.8 µM (inactive); in the assay on LOX IMVI it was 50 µM (inactive). Also, the GI50 in the assay with HCT-116 and in the assay on NCI-H460 was > 100 µM (inactive) throughout.
Regarding `CCCC(C)n1c(C)nc2c1C(=O)c1ccccc1C2=O` (centres undefined), the GI50 with COLO 205 was 23.3 µM (inactive); in the assay with MOLT-4, 18.5 µM (inactive); in the assay on SK-OV-3 it was 42.7 µM (inactive); with K562, 8.57 µM (inactive); in the assay with RXF 393, 20 µM (inactive); in the assay on SK-MEL-2, 20.7 µM (inactive). Further, the GI50 in the assay on OVCAR-8 was 22.8 µM (inactive); in the assay with HT-29, 17.3 µM (inactive); in the assay with TK-10, 31 µM (inactive); in the assay on SW-620 it was 37.7 µM (inactive); in the assay with U-251, 12.2 µM (inactive); in the assay on SF-268 it was 19.6 µM (inactive). Further, the GI50 is 6.78 µM (inactive) in the assay on UACC-62, 8.71 µM (inactive) in the assay with LOX IMVI, 5.52 µM (inactive) in the assay on HCT-116 and 4.6 µM (inactive) with NCI-H460.
Regarding `CCCCCC(=O)N[C@H]1CCc2cc(OC)c(OC)c(OC)c2-c2ccc(SC)c(=O)cc21`, the GI50 in the assay with COLO 205 was 0.0122 µM (active); in the assay on MOLT-4 it was 0.0516 µM (active); with SK-OV-3, 0.0224 µM (active); with A498, 0.0172 µM (active); with K562, < 0.01 µM (active); in the assay on OVCAR-8, 0.0253 µM (active). For the same compound, the GI50 in the assay with HT-29 was 0.0233 µM (active); with TK-10, 0.521 µM (active); in the assay with SW-620, 0.0177 µM (active); in the assay on U-251, 0.0224 µM (active); in the assay with SF-268 it was 0.0212 µM (active); with UACC-62 it was 0.0204 µM (active). For the same compound, the values for the GI50 in the assay with HCT-116 and in the assay with NCI-H460 were 0.02 µM (active) and < 0.01 µM (active), respectively.
Take `CC1CCC(C(C)(C)c2ccccc2)C(=O)C1` (centres undefined): the GI50 with COLO 205, in the assay with MOLT-4, in the assay with SK-OV-3, in the assay on A498, in the assay on K562 and in the assay on SK-MEL-2 was > 100 µM (inactive) each time. Moreover, the GI50 in the assay with OVCAR-8, with HT-29, in the assay on TK-10, with SW-620, with U-251 and in the assay with SF-268 was > 100 µM (inactive) throughout. Further, the GI50 in the assay on UACC-62, in the assay with LOX IMVI, in the assay with HCT-116 and with NCI-H460 was > 100 µM (inactive) throughout.
For the compound `O=C1c2c(c(-c3ccccc3)c(-c3ccccc3)c(-c3ccccc3)c2-c2ccccc2)C(=O)N1c1cccc(Br)c1`, the GI50 in the assay on COLO 205, in the assay on MOLT-4, in the assay with SK-OV-3, in the assay with A498, in the assay with K562 and in the assay on RXF 393 was > 100 µM (inactive) throughout. The GI50 in the assay on SK-MEL-2, in the assay on OVCAR-8, in the assay with TK-10, in the assay with SW-620, in the assay with U-251 and with SF-268 was > 100 µM (inactive) each time. In addition, the GI50 in the assay on UACC-62, in the assay on LOX IMVI, in the assay with HCT-116 and with NCI-H460 was > 100 µM (inactive) throughout.
On to `Cc1nc2c(n1CCN(C)C)C(=O)c1ccccc1C2=O`, for which the GI50 in the assay on COLO 205 was 4.47 µM (inactive); in the assay on MOLT-4, 19.7 µM (inactive); with SK-OV-3, 45.8 µM (inactive); in the assay with K562 it was 18.8 µM (inactive); with RXF 393, 19.4 µM (inactive); in the assay on SK-MEL-2, 12.2 µM (inactive). Further, the GI50 is 17.2 µM (inactive) in the assay on OVCAR-8; 10.4 µM (inactive) in the assay on HT-29; 38.8 µM (inactive) in the assay on TK-10; 15.2 µM (inactive) in the assay with SW-620; 14.5 µM (inactive) in the assay on U-251; 22 µM (inactive) in the assay on SF-268. Moreover, the GI50 was 11.9 µM (inactive) with UACC-62, 14.9 µM (inactive) in the assay with LOX IMVI, 14.5 µM (inactive) with HCT-116 and 9.84 µM (inactive) in the assay on NCI-H460.
On to `CC(C)(c1ccccc1)c1ccc(Oc2ccc3c(c2)-c2nc-3nc3[nH]c(nc4nc(nc5[nH]c(n2)c2ccc(Oc6ccc(C(C)(C)c7ccccc7)cc6)cc52)-c2cc(Oc5ccc(C(C)(C)c6ccccc6)cc5)ccc2-4)c2ccc(Oc4ccc(C(C)(C)c5ccccc5)cc4)cc32)cc1`, for which the GI50 with COLO 205 was > 100 µM (inactive); in the assay on MOLT-4 it was > 100 µM (inactive); in the assay on SK-OV-3, > 100 µM (inactive); in the assay on A498, > 100 µM (inactive); in the assay on K562, > 100 µM (inactive); with RXF 393, 23.9 µM (inactive). The GI50 with SK-MEL-2 is > 100 µM (inactive); in the assay with OVCAR-8, > 100 µM (inactive); with HT-29, > 100 µM (inactive); in the assay on TK-10, 80.2 µM (inactive); with SW-620, > 100 µM (inactive); in the assay with U-251 it was 71.3 µM (inactive). In addition, the GI50 in the assay on UACC-62, with LOX IMVI, in the assay on HCT-116 and with NCI-H460 was > 100 µM (inactive) each time.
On to `CC1CN(c2ccc(Cl)cc2)CC(C)OC(=O)O1` (centres undefined), for which the GI50 with COLO 205, with SK-OV-3, in the assay with K562, in the assay with RXF 393, with SK-MEL-2 and in the assay with OVCAR-8 was > 100 µM (inactive) each time. In addition, the GI50 in the assay on HT-29, in the assay with TK-10, in the assay on SW-620, with U-251, in the assay on SF-268 and in the assay with UACC-62 was > 100 µM (inactive) in each case. For the same compound, the GI50 with LOX IMVI and with NCI-H460 was > 100 µM (inactive) in each case.
`O=C(NC(=O)c1cn(CCNCCO)c(=O)[nH]c1=O)OCc1ccccc1`: the GI50 in the assay on COLO 205, with MOLT-4, in the assay on SK-OV-3, in the assay with K562, in the assay on RXF 393 and in the assay on OVCAR-8 was > 100 µM (inactive) in each case. Also, the GI50 with HT-29, with TK-10, with SW-620, in the assay on U-251, in the assay on SF-268 and in the assay with UACC-62 was > 100 µM (inactive) each time. In addition, the GI50 in the assay on LOX IMVI, in the assay on HCT-116 and with NCI-H460 was > 100 µM (inactive) each time.

Source of the values: ChEMBL document CHEMBL1201862, “PubChem BioAssay data set” (2004).
